Data published in BindingDB's records for doi:10.1016/S0960-894X(96)00249-1 (1996).
pIC50: −log10 of the molar value.

Assays:
[1] = Inhibitory activity against gastrin receptor.
[2] = biological target: T1, Gastrin/cholecystokinin type B receptor (Homo sapiens, UniProt P32239); assay: ChEBML_71518
T1 sequence (P32239 whole entry): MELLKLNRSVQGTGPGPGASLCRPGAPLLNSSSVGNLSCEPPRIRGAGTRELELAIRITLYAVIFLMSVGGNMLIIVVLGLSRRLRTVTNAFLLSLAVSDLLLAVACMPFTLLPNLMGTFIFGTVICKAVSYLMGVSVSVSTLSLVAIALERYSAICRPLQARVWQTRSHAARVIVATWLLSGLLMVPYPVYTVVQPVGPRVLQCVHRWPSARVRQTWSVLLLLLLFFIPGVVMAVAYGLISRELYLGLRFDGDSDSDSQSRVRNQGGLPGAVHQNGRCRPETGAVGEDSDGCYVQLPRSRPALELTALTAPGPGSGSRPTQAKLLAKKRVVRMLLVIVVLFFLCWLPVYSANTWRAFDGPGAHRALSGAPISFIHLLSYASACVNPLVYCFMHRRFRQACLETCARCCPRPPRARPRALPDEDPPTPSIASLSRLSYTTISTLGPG

| pIC50 [1] | pIC50 [2] | Compound |
| --- | --- | --- |
| 7.43 | – | CN1C(=O)[C@H](NC(=O)Nc2cccc(CCOC(=O)NCCCNCCSCc3csc(CC(=N)N)n3)c2)N=C(c2ccccc2)c2ccccc21 [(3-{2-[2-(2,2-Diamino-vinyl)-thiazol-4-ylmethylsulfanyl]-ethylamino}-propyl)-carbamic acid 2-{3-[3-((R)-1-methyl-2-oxo-5-phenyl-2,3-dihydro-1H-benzo[e][1,4]diazepin-3-yl)-ureido]-phenyl}-ethyl ester] |
| 7.77 | – | Cc1cccc(NC(=O)N[C@@H]2N=C(c3ccccc3)c3ccccc3N(CCOC(=O)NCCCC(=O)NCCSCc3csc(CC(=N)N)n3)C2=O)c1 [(3-{2-[2-(2,2-Diamino-vinyl)-thiazol-4-ylmethylsulfanyl]-ethylcarbamoyl}-propyl)-carbamic acid 2-[(R)-2-oxo-5-phenyl-3-(3-m-tolyl-ureido)-2,3-dihydro-benzo[e][1,4]diazepin-1-yl]-ethyl ester] |
| 8.15 | – | CN1C(=O)[C@H](NC(=O)Nc2cccc(COC(=O)NCCN3CCN(C(=O)CNCCCOc4cccc(CN5CCCCC5)c4)CC3)c2)N=C(c2ccccc2)c2ccccc21 [[2-(4-{2-[3-(3-Piperidin-1-ylmethyl-phenoxy)-propylamino]-acetyl}-piperazin-1-yl)-ethyl]-carbamic acid 3-[3-((R)-1-methyl-2-oxo-5-phenyl-2,3-dihydro-1H-benzo[e][1,4]diazepin-3-yl)-ureido]-benzyl ester] |
| 8.05 | – | CN1C(=O)[C@H](NC(=O)Nc2cccc(COC(=O)NCCCN3CCN(C(=O)CNCCCOc4cccc(CN5CCCCC5)c4)CC3)c2)N=C(c2ccccc2)c2ccccc21 [[3-(4-{2-[3-(3-Piperidin-1-ylmethyl-phenoxy)-propylamino]-acetyl}-piperazin-1-yl)-propyl]-carbamic acid 3-[3-((R)-1-methyl-2-oxo-5-phenyl-2,3-dihydro-1H-benzo[e][1,4]diazepin-3-yl)-ureido]-benzyl ester] |
| – | 8.40 | CN1C(=O)[C@H](NC(=O)Nc2cccc(COC(=O)NCNC(=O)CC(=O)NCCSCc3csc(CC(=N)N)n3)c2)N=C(c2ccccc2)c2ccccc21 [[(2-{2-[2-(2,2-Diamino-vinyl)-thiazol-4-ylmethylsulfanyl]-ethylcarbamoyl}-acetylamino)-methyl]-carbamic acid 3-[3-((R)-1-methyl-2-oxo-5-phenyl-2,3-dihydro-1H-benzo[e][1,4]diazepin-3-yl)-ureido]-benzyl ester] |
| 7.57 | – | CN1C(=O)[C@H](NC(=O)Nc2cccc(CCOC(=O)NCCC(=O)NCCCOc3cccc(CN4CCCCC4)c3)c2)N=C(c2ccccc2)c2ccccc21 [{2-[3-(3-Piperidin-1-ylmethyl-phenoxy)-propylcarbamoyl]-ethyl}-carbamic acid 2-{3-[3-((R)-1-methyl-2-oxo-5-phenyl-2,3-dihydro-1H-benzo[e][1,4]diazepin-3-yl)-ureido]-phenyl}-ethyl ester] |
| 6.87 | – | Cc1cccc(NC(=O)N[C@@H]2N=C(c3ccccc3)c3ccccc3N(CCOC(=O)NCCCC(=O)NCCCOc3cccc(CN4CCCCC4)c3)C2=O)c1 [{3-[3-(3-Piperidin-1-ylmethyl-phenoxy)-propylcarbamoyl]-propyl}-carbamic acid 2-[(R)-2-oxo-5-phenyl-3-(3-m-tolyl-ureido)-2,3-dihydro-benzo[e][1,4]diazepin-1-yl]-ethyl ester] |
| 7.96 | – | CN1C(=O)[C@H](NC(=O)Nc2cccc(COC(=O)NCC(=O)NCCCOc3cccc(CN4CCCCC4)c3)c2)N=C(c2ccccc2)c2ccccc21 [{[3-(3-Piperidin-1-ylmethyl-phenoxy)-propylcarbamoyl]-methyl}-carbamic acid 3-[3-((R)-1-methyl-2-oxo-5-phenyl-2,3-dihydro-1H-benzo[e][1,4]diazepin-3-yl)-ureido]-benzyl ester] |

| Compound | pIC50 [1] | pIC50 [2] |
| --- | --- | --- |
| CN1C(=O)[C@H](NC(=O)Nc2cccc(COC(=O)NCCNC(=O)CC(=O)NCCCOc3cccc(CN4CCCCC4)c3)c2)N=C(c2ccccc2)c2ccccc21 [(2-{2-[3-(3-Piperidin-1-ylmethyl-phenoxy)-propylcarbamoyl]-acetylamino}-ethyl)-carbamic acid 3-[3-((R)-1-methyl-2-oxo-5-phenyl-2,3-dihydro-1H-benzo[e][1,4]diazepin-3-yl)-ureido]-benzyl ester] | 7.72 | – |
| Cc1cccc(NC(=O)N[C@@H]2N=C(c3cccc(OC(=O)NCCCC(=O)NCCSCc4csc(CC(=N)N)n4)c3)c3ccccc3N(C)C2=O)c1 [(3-{2-[2-(2,2-Diamino-vinyl)-thiazol-4-ylmethylsulfanyl]-ethylcarbamoyl}-propyl)-carbamic acid 3-[(R)-1-methyl-2-oxo-3-(3-m-tolyl-ureido)-2,3-dihydro-1H-benzo[e][1,4]diazepin-5-yl]-phenyl ester] | < 6.00 | – |
| CN1C(=O)[C@H](NC(=O)Nc2cccc(COC(=O)NCCC(=O)NCCCOc3cccc(CN4CCCCC4)c3)c2)N=C(c2ccccc2)c2ccccc21 [{2-[3-(3-Piperidin-1-ylmethyl-phenoxy)-propylcarbamoyl]-ethyl}-carbamic acid 3-[3-((R)-1-methyl-2-oxo-5-phenyl-2,3-dihydro-1H-benzo[e][1,4]diazepin-3-yl)-ureido]-benzyl ester] | 7.44 | – |
| CN1C(=O)[C@H](NC(=O)Nc2cccc(CCOC(=O)NCCCC(=O)NCCCOc3cccc(CN4CCCCC4)c3)c2)N=C(c2ccccc2)c2ccccc21 [{3-[3-(3-Piperidin-1-ylmethyl-phenoxy)-propylcarbamoyl]-propyl}-carbamic acid 2-{3-[3-((R)-1-methyl-2-oxo-5-phenyl-2,3-dihydro-1H-benzo[e][1,4]diazepin-3-yl)-ureido]-phenyl}-ethyl ester] | 7.64 | – |
| CN1C(=O)[C@H](NC(=O)Nc2cccc(COC(=O)NCCCC(=O)NCCCOc3cccc(CN4CCCCC4)c3)c2)N=C(c2ccccc2)c2ccccc21 [{3-[3-(3-Piperidin-1-ylmethyl-phenoxy)-propylcarbamoyl]-propyl}-carbamic acid 3-[3-((R)-1-methyl-2-oxo-5-phenyl-2,3-dihydro-1H-benzo[e][1,4]diazepin-3-yl)-ureido]-benzyl ester] | 7.59 | – |
| Cc1cccc(NC(=O)N[C@@H]2N=C(c3cccc(OC(=O)NCCCC(=O)NCCCOc4cccc(CN5CCCCC5)c4)c3)c3ccccc3N(C)C2=O)c1 [{3-[3-(3-Piperidin-1-ylmethyl-phenoxy)-propylcarbamoyl]-propyl}-carbamic acid 3-[(R)-1-methyl-2-oxo-3-(3-m-tolyl-ureido)-2,3-dihydro-1H-benzo[e][1,4]diazepin-5-yl]-phenyl ester] | 6.66 | – |
